From US10889592B2, “Thienopyrazine carboxamides as ubiquitin-specific protease inhibitors” (VALO EARLY DISCOVERY, INC., priority 2016, dated 2021)

Legend:
USP28 = USP28 (Homo sapiens (Human), UniProt Q96RU2); experiment: Ubiquitin-Rhodamine 110 Assay for USP28 Activity; type: biochemical; conditions: Ub-Rh110 substrate 25 nM, fluorescence readout
Description: Each assay was performed in a final volume of 20 μL in assay buffer containing 20 mM Tris-HCl (pH 8.0, (1M Tris-HCl, pH 8.0 solution; Corning 46-031-CM)), 2 mM CaCl2) (1M Calcium Chloride solution; Sigma #21114) 2 mM BME (2-Mercaptoethanol; Sigma 63689-25ML-F), 0.01% Prionex (0.22 μM filtered, Sigma # G-0411), and 0.01% Triton X-100. Stock compound solutions were stored at −20° C. as 10 mM in DMSO. Up to 1 month prior to the assay, 2 mM test compounds were pre-dispensed into assay plates (Black, low volume; Corning #3820) and frozen at −20° C. Prestamped assay plates were allowed to come to room temperature on the day of the assay. For the screen, 100 nL of 2 mM was pre-dispensed for a final screening concentration of 10 μM (DMSO(fc)=0.5%). Enzyme (USP28, construct USP28 (USP28-5(1-1077)-TEV-6*His; LifeSensors) concentration and incubation times were optimized for the maximal signal-to-background while maintaining initial velocity conditions at a fixed substrate concentration. The final concentration of the enzyme in the assay was 400 pM. Final substrate (Ub-Rh110; Ubiquitin-Rhodamine 110, R&D Systems # U-555) concentration was 25 nM with [Ub-Rh110]<<Km. 10 μL of 2× enzyme was added to assay plates (pre-stamped with compound) either simultaneously with 2×Ub-Rh110 or preincubated with USP28 40 minutes prior to the addition of 10 μL of 2×Ub-Rh110 to compound plates. Plates were incubated stacked for 90 minutes at room temperature before fluorescence was read on the Envision (Excitation at 485 nm and Emission at 535 nm; Perkin Elmer) or on the PheraSTAR (Excitation at 485 nm and Emission at 535 nm; BMG Labtech).
For follow-up studies, Each assay was performed in a final volume of 15 μL in assay buffer containing 20 mM Tris-HCl (pH 8.0, (1M Tris-HCl, pH 8.0 solution; Corning 46-031-CM)), 3 mM BME (2-Mercaptoethanol; Sigma 63689-25ML-F), 0.03% BGG ([…] filtered, Sigma, G7516-25G), and 0.01% Triton X-100 (Sigma, T9284-10L). Nanoliter quantities of either an 8-point or 10-point, 3-fold serial dilution in DMSO was pre-dispensed into assay plates (Perkin Elmer, ProxiPlate-384 F Plus, #) for a final test concentration of either 25 μM to 11 nM or 25 μM to 1.3 nM, respectively. Enzyme USP28, construct USP28 (USP28-5(1-1077)-TEV-6*His; LifeSensors) concentration and incubation times were optimized for the maximal signal-to-background while maintaining initial velocity conditions at a fixed substrate concentration. The final concentration of the enzyme in the assay was 75 pM. Final substrate (Ub-Rh110; Ubiquitin-Rhodamine 110, R&D Systems # U-555) concentration was 25 nM with [Ub-Rh110]<<Km. 5 μL of 2× enzyme was added to assay plates (pre-stamped with compound) preincubated with USP28 for 30 minutes and then 5 μL of 2×Ub-Rh110 was added to assay plates. Plates were incubated stacked for 20 minutes at room temperature before 5 μL of stop solution was added (final concentration of 10 mM citric acid (Sigma, 251275-500G)). Fluorescence was read on the Envision (Excitation at 485 nm and Emission at 535 nm; Perkin Elmer) or on the PheraSTAR (Excitation at 485 nm and Emission at 535 nm; BMG Labtech).
(§1) For both the USP28 and USP25 assay formats Data were reported as percent inhibition compared with control wells based on the following equation: % inh=1−((FLU−AveLow)/(AveHigh−AveLow)) where FLU=measured Fluorescence, AveLow=average Fluorescence of no enzyme control (n=16), and AveHigh=average Fluorescence of DMSO control (n=16). IC50 values were determined by curve fitting of the standard 4 parameter logistic fitting algorithm included in the Activity Base software package: IDBS XE Designer Model205. Data is fitted using the Levenburg Marquardt algorithm.

USP25 = USP25 (Homo sapiens (Human), UniProt Q9UHP3); experiment: Ubiquitin-Rhodamine 110 Assay for USP25 Activity; type: biochemical; conditions: Ub-Rh110 substrate 25 nM, fluorescence readout
Chain of USP25 (Q9UHP3 whole entry): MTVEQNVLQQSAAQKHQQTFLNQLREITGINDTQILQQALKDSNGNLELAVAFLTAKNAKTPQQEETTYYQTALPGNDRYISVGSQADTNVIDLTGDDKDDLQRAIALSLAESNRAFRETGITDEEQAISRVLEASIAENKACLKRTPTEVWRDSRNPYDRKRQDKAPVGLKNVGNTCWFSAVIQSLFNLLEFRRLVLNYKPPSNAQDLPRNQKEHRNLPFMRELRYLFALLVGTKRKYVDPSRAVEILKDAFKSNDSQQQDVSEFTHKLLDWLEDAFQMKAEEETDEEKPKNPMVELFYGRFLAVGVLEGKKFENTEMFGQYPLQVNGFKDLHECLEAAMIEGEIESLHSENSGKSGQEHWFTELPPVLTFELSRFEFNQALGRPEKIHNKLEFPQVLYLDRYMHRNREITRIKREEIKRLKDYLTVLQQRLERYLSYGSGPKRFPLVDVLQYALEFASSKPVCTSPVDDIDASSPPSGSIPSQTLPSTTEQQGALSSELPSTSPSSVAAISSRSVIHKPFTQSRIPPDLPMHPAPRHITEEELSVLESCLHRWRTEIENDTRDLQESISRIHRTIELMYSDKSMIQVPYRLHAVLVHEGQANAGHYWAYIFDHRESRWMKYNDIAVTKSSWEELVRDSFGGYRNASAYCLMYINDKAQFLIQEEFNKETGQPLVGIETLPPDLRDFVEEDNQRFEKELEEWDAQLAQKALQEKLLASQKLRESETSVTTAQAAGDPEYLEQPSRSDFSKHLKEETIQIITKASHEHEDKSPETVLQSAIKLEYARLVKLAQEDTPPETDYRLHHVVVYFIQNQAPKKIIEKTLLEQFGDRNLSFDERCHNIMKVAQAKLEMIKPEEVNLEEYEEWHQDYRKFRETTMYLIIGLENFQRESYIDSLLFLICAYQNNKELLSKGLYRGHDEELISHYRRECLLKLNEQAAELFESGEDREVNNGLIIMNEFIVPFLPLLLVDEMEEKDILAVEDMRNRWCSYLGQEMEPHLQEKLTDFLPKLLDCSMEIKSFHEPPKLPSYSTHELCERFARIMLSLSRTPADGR
Description: The assay was performed in a final volume of 9 μL in assay buffer containing 20 mM Tris-HCl (pH 8.0, (1M Tris-HCl, pH 8.0 solution; Corning 46-031-CM)), 3 mM BME (2-Mercaptoethanol; Sigma 63689-25ML-F), 0.03% BGG ([…] filtered. Sigma, G7516-25G), and 0.01% Triton X-100 (Sigma, T9284-10L). Nanoliter quantities of 10-point, 3-fold serial dilution in DMSO was pre-dispensed into 1536 assay plates (Corning, #3724BC) for a final test concentration of 25 μM to 1.3 nM, top to lowest dose, respectively. Enzyme USP25, construct USP25-His6, (Boston Biochem E-546). Concentration and incubation times were optimized for the maximal signal-to-background while maintaining initial velocity conditions at a fixed substrate concentration. The final concentration of the enzyme in the assay was 75 pM. Final substrate (Ub-Rh110 Ubiquitin-Rhodamine 110, R&D Systems # U-555) concentration was 25 nM with [Ub-Rh110]<<Km. 3 μL of 2× enzyme was added to assay plates (pre-stamped with compound) preincubated with […] for 30 minutes and then 3 μL of 2×Ub-Rh110 was added to assay plates. Plates were incubated for 45 minutes at room temperature before addition of 3 μL of stop solution (final concentration of 10 mM citric acid (Sigma, 251275-500G)). Fluorescence was read on the Envision (Excitation at 485 nm and Emission at 535 nm; Perkin Elmer) or on the PheraSTAR (Excitation at 485 nm and Emission at 535 nm; BMG Labtech).
as §1

Chain of USP28 (Q96RU2 whole entry): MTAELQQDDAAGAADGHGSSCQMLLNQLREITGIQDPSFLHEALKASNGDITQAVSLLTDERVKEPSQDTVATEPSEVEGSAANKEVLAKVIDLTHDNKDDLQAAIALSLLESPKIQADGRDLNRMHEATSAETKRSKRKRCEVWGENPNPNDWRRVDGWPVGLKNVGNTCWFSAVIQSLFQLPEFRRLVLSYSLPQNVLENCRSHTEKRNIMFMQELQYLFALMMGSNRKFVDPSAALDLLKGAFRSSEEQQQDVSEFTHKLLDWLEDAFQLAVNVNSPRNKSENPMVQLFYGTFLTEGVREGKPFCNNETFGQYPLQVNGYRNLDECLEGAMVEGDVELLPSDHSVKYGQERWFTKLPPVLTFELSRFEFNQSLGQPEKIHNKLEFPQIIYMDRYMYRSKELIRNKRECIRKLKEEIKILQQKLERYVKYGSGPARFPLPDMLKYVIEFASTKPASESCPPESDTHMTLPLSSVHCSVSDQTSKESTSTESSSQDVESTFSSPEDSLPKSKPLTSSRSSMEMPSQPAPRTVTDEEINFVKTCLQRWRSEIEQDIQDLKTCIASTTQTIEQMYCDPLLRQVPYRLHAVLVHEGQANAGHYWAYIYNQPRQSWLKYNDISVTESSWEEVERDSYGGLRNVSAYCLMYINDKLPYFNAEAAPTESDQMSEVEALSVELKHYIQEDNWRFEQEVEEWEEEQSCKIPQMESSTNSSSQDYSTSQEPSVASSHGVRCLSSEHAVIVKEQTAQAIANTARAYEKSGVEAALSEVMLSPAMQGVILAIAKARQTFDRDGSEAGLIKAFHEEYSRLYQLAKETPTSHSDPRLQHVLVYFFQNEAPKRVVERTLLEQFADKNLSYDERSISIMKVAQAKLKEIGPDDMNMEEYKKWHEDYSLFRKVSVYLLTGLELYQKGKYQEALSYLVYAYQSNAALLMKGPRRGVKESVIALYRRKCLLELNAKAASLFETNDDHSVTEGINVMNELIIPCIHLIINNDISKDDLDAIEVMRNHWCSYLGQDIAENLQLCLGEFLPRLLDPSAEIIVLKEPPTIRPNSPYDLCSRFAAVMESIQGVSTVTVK

SMILES	IC50 (USP28)	IC50 (USP25)
Cc1cnc2c(N)c(C(=O)NCCc3ccc(N4CCNCC4)cc3)sc2n1 [Compound I-1, 7-Amino-3-methyl-N-(4-(piperazin-1-yl)phenethyl)thieno[2,3-b]pyrazine-6-carboxamide]	200 to 2000 nM	
Cc1cnc2c(N)c(C(=O)NCCc3ccc(N4CC5CCC(C4)N5)cc3F)sc2n1 [Compound I-10]	< 200 nM	200 to 2000 nM
Cc1cnc2c(N)c(C(=O)NC[C@H](C)c3cc(F)c(N4CC5CNCC(C4)O5)cc3F)sc2n1 (single isomer, unassigned) [Compound I-22]	200 to 2000 nM	200 to 2000 nM
Cc1cnc2c(N)c(C(=O)NC[C@H](C)c3ccc(N4CC5CCC(C4)N5)cc3F)sc2n1 (single isomer, unassigned) [Compound I-17]	200 to 2000 nM	2000 to 10000 nM
Cc1cnc2c(N)c(C(=O)NC[C@@H](C)c3cc(F)c(N4CC5CNCC(C4)O5)cc3F)sc2n1 (single isomer, unassigned) [Compound I-21]	200 to 2000 nM	200 to 2000 nM
Cc1cnc2c(N)c(C(=O)NCCc3cc(F)c(N4CCNCC4)cc3F)sc2n1 [Compound I-4]	200 to 2000 nM	2000 to 10000 nM
Cc1cnc2c(N)c(C(=O)NC[C@H](C)c3ccc(N4CC5CCC(C4)N5)c(F)c3)sc2n1 (single isomer, unassigned) [Compound I-13]	200 to 2000 nM	2000 to 10000 nM
Cc1cnc2c(N)c(C(=O)NC[C@@H](C)c3ccc(N4CC5CCC(C4)N5)c(C#N)c3)sc2n1 (single isomer, unassigned) [Compound I-18]	2000 to 10000 nM	2000 to 10000 nM
Cc1cnc2c(N)c(C(=O)NC[C@@H](C)c3ccc(N4CC5CCC(C4)N5)cc3F)sc2n1 (single isomer, unassigned) [Compound I-16]	200 to 2000 nM	200 to 2000 nM
Cc1cnc2c(N)c(C(=O)NC[C@H](C)c3ccc(N4CC5CCC(C4)N5)c(C#N)c3)sc2n1 (single isomer, unassigned) [Compound I-19]	2000 to 10000 nM	2000 to 10000 nM
Cc1cnc2c(N)c(C(=O)NCCc3ccc(N4CC5CCC(C4)N5)c(Cl)c3)sc2n1 [Compound I-3, N-(4-(3,8-diazabicyclo[3.2.1]octan-3-yl)-3-chlorophenethyl)-7-amino-3-methylthieno[2,3-b]pyrazine-6-carboxamide]	< 200 nM	
Cc1cnc2c(N)c(C(=O)NCCc3c(F)cc(N4CC5CCC(C4)N5)cc3F)sc2n1 [Compound I-11]	200 to 2000 nM	200 to 2000 nM
Cc1cnc2c(N)c(C(=O)NC[C@@H](C)c3cc(F)c(N4CC5CCC(C4)N5)cc3F)sc2n1 (single isomer, unassigned) [Compound I-14]	2000 to 10000 nM	
Cc1cnc2c(N)c(C(=O)NC[C@@H](C)c3ccc(N4CC5CCC(C4)N5)c(F)c3)sc2n1 (single isomer, unassigned) [Compound I-12]	200 to 2000 nM	2000 to 10000 nM
Cc1cnc2c(N)c(C(=O)NCCc3ccc(N4CCNCC4)c(Cl)c3)sc2n1 [Compound I-2]	200 to 2000 nM	
Cc1cnc2c(N)c(C(=O)NC[C@H](C)c3cc(F)c(N4CC5CCC(C4)N5)cc3F)sc2n1 (single isomer, unassigned) [Compound I-15]	< 200 nM	2000 to 10000 nM
Cc1cnc2c(N)c(C(=O)NCCc3cc(F)c(N4CC5CCC(C4)N5)cc3F)sc2n1 [Compound I-7, N-(4-(3,8-diazabicyclo[3.2.1]octan-3-yl)-2,5-difluorophenethyl)-7-amino-3-methylthieno[2,3-b]pyrazine-6-carboxamide]	< 200 nM	200 to 2000 nM
Cc1cnc2c(N)c(C(=O)NCCc3ccc(N4CC5CCC(C4)N5)c(C#N)c3)sc2n1 [Compound I-9]	200 to 2000 nM	200 to 2000 nM
CCc1cnc2c(N)c(C(=O)NCCc3ccc(N4CC5CCC(C4)N5)cc3)sc2n1 [Compound I-23]	2000 to 10000 nM	200 to 2000 nM
Cc1cnc2c(N)c(C(=O)NCCc3c(F)cc(N4CC5CNCC(C4)O5)cc3F)sc2n1 [Compound I-20]	< 200 nM	< 200 nM
Cc1cnc2c(N)c(C(=O)NCCc3ccc(N4CC5CCC(C4)N5)c(F)c3)sc2n1 [Compound I-6]	< 200 nM	< 200 nM
